Test results: ChEMBL document CHEMBL3885861, “Open TG-GATES”

Organism: Rattus norvegicus
Experiment: Open TG-GATES - Regimen: Single
Format: toxicity, organism-based, Sprague-Dawley
Parameters: regimen Single, gender Male, age 6 weeks
Conditions: in vivo, po, 0 mg/kg, route gavage, dose level Control; for APTT / Bas / Eos / Fbg / Hb / Ht / Lym / MCH / MCHC / MCV / Mono / Neu / PT / Plat / RBC / Ret / WBC: tissue Blood; for KIDNEY_L / KIDNEY_R / KIDNEY_TOTAL: tissue Kidney; for LIVER: tissue Liver; for A/G / ALP / ALT / AST / BUN / CRE / Ca / Cl / DBIL / GLC / IP / K / LDH / Na / PL / RALB / TBIL / TC / TG / TP / gamma-GTP: tissue Plasma

CCCCNC(=O)NS(=O)(=O)c1ccc(C)cc1 [TOLBUTAMIDE]
TERMINAL_BW (3 h): 203.9 g
APTT (3 h): 16.5 s
Bas (3 h): 0%
Eos (3 h): 0.8%
Fbg (3 h): 286.6 mg/dL
Hb (3 h): 13.7 g/dL
Ht (3 h): 42.1%
Lym (3 h): 78.2%
MCH (3 h): 21 pg
MCHC (3 h): 32.5%
MCV (3 h): 64.8 fL
Mono (3 h): 2.8%
Neu (3 h): 18%
PT (3 h): 12.9 s
Plat (3 h): 128.5 x10_4/uL
RBC (3 h): 649.4 x10_4/ul
Ret (3 h): 8.5%
WBC (3 h): 86 x10_2/uL
KIDNEY_L (3 h): 0.9 g
KIDNEY_R (3 h): 0.9 g
KIDNEY_TOTAL (3 h): 1.8 g
LIVER (3 h): 9.1 g
A/G (3 h): 0.9
ALP (3 h): 1445.2 IU/L
ALT (3 h): 43.8 IU/L
AST (3 h): 73.6 IU/L
BUN (3 h): 9.8 mg/dL
CRE (3 h): 0.2 mg/dL
Ca (3 h): 11 mg/dL
Cl (3 h): 106.8 meq/L
DBIL (3 h): 0.006 mg/dL
GLC (3 h): 175 mg/dL
IP (3 h): 8.9 mg/dL
K (3 h): 4.1 meq/L
LDH (3 h): 52.4 IU/L
Na (3 h): 141.6 meq/L
PL (3 h): 145 mg/dL
RALB (3 h): 2.5 g/dL
TBIL (3 h): 0.078 mg/dL
TC (3 h): 80.8 mg/dL
TG (3 h): 54.6 mg/dL
TP (3 h): 5.3 g/dL
gamma-GTP (3 h): 1 IU/L
TERMINAL_BW (6 h): 204 g
APTT (6 h): 18.7 s
Bas (6 h): 0.2%
Eos (6 h): 1%
Fbg (6 h): 279.6 mg/dL
Hb (6 h): 13.6 g/dL
Ht (6 h): 41.9%
Lym (6 h): 80.4%
MCH (6 h): 20.6 pg
MCHC (6 h): 32.5%
MCV (6 h): 63.6 fL
Mono (6 h): 2%
Neu (6 h): 15.8%
PT (6 h): 13.1 s
Plat (6 h): 131.1 x10_4/uL
RBC (6 h): 659.4 x10_4/ul
Ret (6 h): 8.1%
WBC (6 h): 84.4 x10_2/uL
KIDNEY_L (6 h): 0.9 g
KIDNEY_R (6 h): 0.9 g
KIDNEY_TOTAL (6 h): 1.9 g
LIVER (6 h): 8.8 g
A/G (6 h): 0.9
ALP (6 h): 1197.4 IU/L
ALT (6 h): 36.6 IU/L
AST (6 h): 66.4 IU/L
BUN (6 h): 8.4 mg/dL
CRE (6 h): 0.2 mg/dL
Ca (6 h): 10.7 mg/dL
Cl (6 h): 105.6 meq/L
DBIL (6 h): 0.01 mg/dL
GLC (6 h): 172.6 mg/dL
IP (6 h): 9.5 mg/dL
K (6 h): 4.1 meq/L
LDH (6 h): 49 IU/L
Na (6 h): 141.2 meq/L
PL (6 h): 138.4 mg/dL
RALB (6 h): 2.5 g/dL
TBIL (6 h): 0.078 mg/dL
TC (6 h): 78.8 mg/dL
TG (6 h): 46.6 mg/dL
TP (6 h): 5.2 g/dL
gamma-GTP (6 h): 1 IU/L
TERMINAL_BW (9 h): 202.2 g
APTT (9 h): 15.8 s
Bas (9 h): 0.2%
Eos (9 h): 1.2%
Fbg (9 h): 284 mg/dL
Hb (9 h): 13.3 g/dL
Ht (9 h): 40.1%
Lym (9 h): 75.6%
MCH (9 h): 21 pg
MCHC (9 h): 33%
MCV (9 h): 63.6 fL
Mono (9 h): 2%
Neu (9 h): 20.8%
PT (9 h): 13.3 s
Plat (9 h): 121 x10_4/uL
RBC (9 h): 633 x10_4/ul
Ret (9 h): 8.3%
WBC (9 h): 72.5 x10_2/uL
KIDNEY_L (9 h): 0.9 g
KIDNEY_R (9 h): 1 g
KIDNEY_TOTAL (9 h): 1.9 g
LIVER (9 h): 7.9 g
A/G (9 h): 0.9
ALP (9 h): 1161.6 IU/L
ALT (9 h): 38.6 IU/L
AST (9 h): 73.8 IU/L
BUN (9 h): 7.6 mg/dL
CRE (9 h): 0.1 mg/dL
Ca (9 h): 10.7 mg/dL
Cl (9 h): 106.2 meq/L
DBIL (9 h): 0 mg/dL
GLC (9 h): 166.8 mg/dL
IP (9 h): 9.4 mg/dL
K (9 h): 4.3 meq/L
LDH (9 h): 60.8 IU/L
Na (9 h): 141 meq/L
PL (9 h): 132.8 mg/dL
RALB (9 h): 2.5 g/dL
TBIL (9 h): 0.078 mg/dL
TC (9 h): 78.4 mg/dL
TG (9 h): 33.2 mg/dL
TP (9 h): 5.2 g/dL
gamma-GTP (9 h): 1 IU/L
TERMINAL_BW (24 h): 220 g
APTT (24 h): 17.4 s
Bas (24 h): 0.2%
Eos (24 h): 1.2%
Fbg (24 h): 296 mg/dL
Hb (24 h): 13.3 g/dL
Ht (24 h): 40.5%
Lym (24 h): 74.2%
MCH (24 h): 21.3 pg
MCHC (24 h): 32.9%
MCV (24 h): 64.9 fL
Mono (24 h): 3%
Neu (24 h): 20.4%
PT (24 h): 12.9 s
Plat (24 h): 123.6 x10_4/uL
RBC (24 h): 624.8 x10_4/ul
Ret (24 h): 7.7%
WBC (24 h): 89 x10_2/uL
KIDNEY_L (24 h): 1 g
KIDNEY_R (24 h): 1 g
KIDNEY_TOTAL (24 h): 2 g
LIVER (24 h): 10.3 g
A/G (24 h): 0.9
ALP (24 h): 1544.6 IU/L
ALT (24 h): 44.6 IU/L
AST (24 h): 67 IU/L
BUN (24 h): 15.2 mg/dL
CRE (24 h): 0.2 mg/dL
Ca (24 h): 11.2 mg/dL
Cl (24 h): 104.8 meq/L
DBIL (24 h): 0.01 mg/dL
GLC (24 h): 171.2 mg/dL
IP (24 h): 8.3 mg/dL
K (24 h): 4 meq/L
LDH (24 h): 78 IU/L
Na (24 h): 141.6 meq/L
PL (24 h): 162.4 mg/dL
RALB (24 h): 2.6 g/dL
TBIL (24 h): 0.066 mg/dL
TC (24 h): 89.8 mg/dL
TG (24 h): 85.4 mg/dL
TP (24 h): 5.6 g/dL
gamma-GTP (24 h): 1.2 IU/L
